Positions of bridges follow the written chain, without caps; N, C: chain ends. Non-standard residues stand in square brackets, D forms with d. Residues, ends and D or L forms follow the SMILES beside them. *: point of attachment. Ala(4-thiazolyl) = N[C@@H](Cc1cscn1)C(=O)O; Tyr(3-F) = N[C@@H](Cc1ccc(O)c(F)c1)C(=O)O; NEtPhe = CCN[C@@H](Cc1ccccc1)C(=O)O; NMeF = CN[C@@H](Cc1ccccc1)C(=O)O; NMeI = CC[C@H](C)[C@H](NC)C(=O)O; AllylGly = C=CC[C@H](N)C(=O)O; NMeL = CN[C@@H](CC(C)C)C(=O)O; Ala(CN) = N#CC[C@H](N)C(=O)O; NMeV = CN[C@H](C(=O)O)C(C)C; NMeA = CN[C@@H](C)C(=O)O; Piperidide = C1CCN(*)CC1; dNMeA = CN[C@H](C)C(=O)O; Sar = CNCC(=O)O
Experiment: Metabolic stability in human hepatic microsome
Assay type: in vitro ADME
Conditions: human, microsomes, pH 7.4, CL NADPH(+)

| SMILES | microsomal CLint at 1 uM [µL/min/mg] |
| --- | --- |
| CCN1C(=O)[C@H](Cc2ccccc2)N(C)C(=O)CN(C)C(=O)[C@H]([C@@H](C)O)NC(=O)[C@H](C)N(C)C(=O)C[C@@H](C(=O)N2CCCCC2)NC(=O)[C@H](C(C)C)N(C)C(=O)[C@H](C)NC(=O)[C@H](CC(C)C)N(C)C(=O)[C@@H]2CCCN2C(=O)[C@H](CC(C)C)N(C)C(=O)[C@@H]1Cc1ccccc1 [DP-632] ([NMeA]T[Sar][NMeF][NEtPhe][NMeL]P[NMeL]A[NMeV]D-Piperidide; lactam N-11) | 41 |

Same assay, conditions: microsomes, pH 7.4; human hepatic microsome, NADPH(+); read-out: CL NADPH(+)

| SMILES | microsomal CLint at 1 uM [µL/min/mg] |
| --- | --- |
| CC(C)C[C@@H]1NC(=O)[C@H](CC(C)C)N(C)C(=O)[C@H](CC(C)C)N(C)C(=O)[C@H](Cc2ccccc2)NC(=O)[C@H](Cc2ccccc2)N(C)C(=O)[C@H](CCC(N)=O)NC(=O)[C@H](CC(C)C)N(C)C(=O)[C@H](Cc2ccccc2)NC(=O)[C@H](C)NC(=O)C[C@@H](C(=O)N(C)[C@@H](Cc2ccccc2)C(=O)N[C@@H](C)C(=O)N2CCCCC2)NC1=O [DP-601] (AF[NMeL]Q[NMeF]F[NMeL][NMeL]LD[NMeF]A-Piperidide; lactam N-10) | 21 |
| CC(C)C[C@@H]1NC(=O)[C@H](CC(C)C)N(C)C(=O)[C@H](CC(C)C)N(C)C(=O)[C@H](CCC(N)=O)NC(=O)[C@H](Cc2ccccc2)N(C)C(=O)[C@H]([C@@H](C)O)NC(=O)[C@H](CC(C)C)N(C)C(=O)[C@H](Cc2ccccc2)NC(=O)[C@H](C)NC(=O)C[C@@H](C(=O)N(C)[C@@H](Cc2ccccc2)C(=O)N[C@@H](C)C(=O)N2CCCCC2)NC1=O [DP-602] (AF[NMeL]T[NMeF]Q[NMeL][NMeL]LD[NMeF]A-Piperidide; lactam N-10) | 26 |
| CC(C)C[C@@H]1NC(=O)[C@H](CC(C)C)N(C)C(=O)[C@H](CC(C)C)N(C)C(=O)[C@H](C)NC(=O)[C@H](Cc2ccccc2)N(C)C(=O)[C@H](CCC(=O)N(C)C)NC(=O)[C@H](CC(C)C)N(C)C(=O)[C@H](Cc2ccccc2)NC(=O)[C@H](C)NC(=O)C[C@@H](C(=O)N(C)[C@@H](Cc2ccccc2)C(=O)N[C@@H](C)C(=O)N2CCCCC2)NC1=O [DP-603] (AF[NMeL]E(NMe2)[NMeF]A[NMeL][NMeL]LD[NMeF]A-Piperidide; lactam N-10) | 17 |
| CC(C)C[C@@H]1NC(=O)[C@H](CC(C)C)N(C)C(=O)[C@H](CC(C)C)N(C)C(=O)CNC(=O)[C@H](Cc2ccccc2)N(C)C(=O)[C@H]([C@@H](C)O)NC(=O)[C@H](CC(C)C)N(C)C(=O)[C@H](Cc2ccc(O)c(F)c2)NC(=O)[C@H](C)NC(=O)C[C@@H](C(=O)N(C)[C@@H](Cc2ccccc2)C(=O)N[C@@H](C)C(=O)N2CCCCC2)NC1=O [DP-605] (A[Tyr(3-F)][NMeL]T[NMeF]G[NMeL][NMeL]LD[NMeF]A-Piperidide; lactam N-10) | 30 |
| CC(C)C[C@@H]1NC(=O)[C@H](CC(C)C)N(C)C(=O)[C@H](C)N(C)C(=O)[C@H](Cc2ccc(O)c(F)c2)NC(=O)[C@H](Cc2ccccc2)N(C)C(=O)[C@H]([C@@H](C)O)NC(=O)[C@H](CC(C)C)N(C)C(=O)[C@H](Cc2ccccc2)NC(=O)[C@H](C)NC(=O)C[C@@H](C(=O)N(C)[C@@H](Cc2ccccc2)C(=O)N[C@@H](C)C(=O)N2CCCCC2)NC1=O [DP-606] (AF[NMeL]T[NMeF][Tyr(3-F)][NMeA][NMeL]LD[NMeF]A-Piperidide; lactam N-10) | 70 |
| CC(C)C[C@H]1C(=O)N(C)[C@@H](CC(C)C)C(=O)N[C@@H](Cc2c[nH]c3ccccc23)C(=O)N[C@H](C(=O)N(C)[C@@H](Cc2ccccc2)C(=O)N[C@@H](C)C(=O)N2CCCCC2)CC(=O)N[C@@H](C)C(=O)N[C@@H](Cc2ccccc2)C(=O)N(C)[C@@H](CC(C)C)C(=O)N[C@@H]([C@@H](C)O)C(=O)N(C)[C@@H](Cc2ccccc2)C(=O)NCC(=O)N1C [DP-608] (AF[NMeL]T[NMeF]G[NMeL][NMeL]WD[NMeF]A-Piperidide; lactam N-10) | 13 |
| CC(C)C[C@@H]1NC(=O)[C@H](CC(C)C)N(C)C(=O)[C@H](CC(C)C)N(C)C(=O)CNC(=O)[C@H](Cc2ccccc2)N(C)C(=O)[C@H](Cc2cscn2)NC(=O)[C@H](CC(C)C)N(C)C(=O)[C@H](Cc2ccccc2)NC(=O)[C@H](C)NC(=O)C[C@@H](C(=O)N(C)[C@@H](Cc2ccccc2)C(=O)N[C@@H](C)C(=O)N2CCCCC2)NC1=O [DP-609] (AF[NMeL][Ala(4-thiazolyl)][NMeF]G[NMeL][NMeL]LD[NMeF]A-Piperidide; lactam N-10) | 16 |
| C=CC[C@@H]1NC(=O)[C@H](CC(C)C)N(C)C(=O)[C@H](CC(C)C)N(C)C(=O)CNC(=O)[C@H](Cc2ccccc2)N(C)C(=O)[C@H]([C@@H](C)O)NC(=O)[C@H](CC(C)C)N(C)C(=O)[C@H](Cc2ccccc2)NC(=O)[C@H](C)NC(=O)C[C@@H](C(=O)N(C)[C@@H](Cc2ccccc2)C(=O)N[C@@H](C)C(=O)N2CCCCC2)NC1=O [DP-611] (AF[NMeL]T[NMeF]G[NMeL][NMeL][AllylGly]D[NMeF]A-Piperidide; lactam N-10) | 20 |
| C=CC[C@@H]1NC(=O)[C@H](Cc2ccccc2)N(C)C(=O)[C@H]([C@@H](C)O)NC(=O)[C@H](CC(C)C)N(C)C(=O)[C@H](Cc2ccccc2)NC(=O)[C@H](C)NC(=O)C[C@@H](C(=O)N(C)[C@@H](Cc2ccccc2)C(=O)N[C@@H](C)C(=O)N2CCCCC2)NC(=O)[C@H](CC(C)C)NC(=O)[C@H](CC(C)C)N(C)C(=O)[C@H](C)N(C)C1=O [DP-612] (AF[NMeL]T[NMeF][AllylGly][NMeA][NMeL]LD[NMeF]A-Piperidide; lactam N-10) | 155 |
| CC(C)C[C@H]1C(=O)N(C)[C@@H](CC(C)C)C(=O)N[C@@H](C)C(=O)N[C@H](C(=O)N(C)[C@@H](Cc2ccccc2)C(=O)N[C@@H](C)C(=O)N2CCCCC2)CC(=O)N[C@@H](C)C(=O)N[C@@H](Cc2ccccc2)C(=O)N(C)[C@@H](CC(C)C)C(=O)N[C@@H](CC#N)C(=O)N(C)[C@@H](Cc2ccccc2)C(=O)N[C@@H](C)C(=O)N1C [DP-613] (AF[NMeL][Ala(CN)][NMeF]A[NMeL][NMeL]AD[NMeF]A-Piperidide; lactam N-10) | 37 |
| CC(C)C[C@@H]1NC(=O)C[C@@H](C(=O)N2CCCCC2)NC(=O)[C@H]([C@@H](C)O)NC(=O)[C@H](C(C)C)N(C)C(=O)CN(C)C(=O)[C@H](CC(C)C)N(C)C(=O)[C@H](Cc2ccccc2)NC(=O)[C@H](Cc2ccccc2)N(C)C(=O)[C@@H](C(C)C)NC(=O)[C@H](CC(C)C)N(C)C(=O)[C@H](C)N(C)C1=O [DP-615] (L[NMeA][NMeL][dV][NMeF]F[NMeL][Sar][NMeV]TD-Piperidide; lactam N-11) | 42 |
| CC(C)C[C@@H]1NC(=O)[C@H](CC(C)C)N(C)C(=O)[C@H](C)N(C)C(=O)[C@H](Cc2ccccc2)NC(=O)C[C@@H](C(=O)N2CCCCC2)NC(=O)[C@H]([C@@H](C)O)NC(=O)[C@H](C(C)C)N(C)C(=O)CN(C)C(=O)[C@H](CC(C)C)N(C)C(=O)[C@@H](C(C)C)NC(=O)[C@H](Cc2ccccc2)N(C)C1=O [DP-616] (F[NMeA][NMeL]L[NMeF][dV][NMeL][Sar][NMeV]TD-Piperidide; lactam N-11) | 69 |
| CC(C)C[C@@H]1NC(=O)[C@H](CC(C)C)N(C)C(=O)[C@H](C)N(C)C(=O)[C@@H](C(C)C)NC(=O)C[C@@H](C(=O)N2CCCCC2)NC(=O)[C@H]([C@@H](C)O)NC(=O)[C@H](C)N(C)C(=O)CN(C)C(=O)[C@H](CC(C)C)N(C)C(=O)[C@H](Cc2c[nH]c3ccccc23)NC(=O)[C@H](Cc2ccccc2)N(C)C1=O [DP-622] ([dV][NMeA][NMeL]L[NMeF]W[NMeL][Sar][NMeA]TD-Piperidide; lactam N-11) | 36 |
| CC(C)C[C@H]1C(=O)N(C)CC(=O)N(C)[C@@H](C)C(=O)N[C@@H]([C@@H](C)O)C(=O)N[C@H](C(=O)N2CCCCC2)CC(=O)N[C@H](C(C)C)C(=O)N(C)[C@@H](C)C(=O)N(C)[C@@H](CC(C)C)C(=O)N[C@@H](Cc2c[nH]c3ccccc23)C(=O)N(C)[C@@H](Cc2ccccc2)C(=O)N[C@@H](Cc2ccccc2)C(=O)N1C [DP-623] ([dV][NMeA][NMeL]W[NMeF]F[NMeL][Sar][NMeA]TD-Piperidide; lactam N-11) | 16 |
| C=CC[C@@H]1NC(=O)[C@H](CC(C)C)N(C)C(=O)[C@H](C)N(C)C(=O)[C@@H](C(C)C)NC(=O)C[C@@H](C(=O)N2CCCCC2)NC(=O)[C@H]([C@@H](C)O)NC(=O)[C@H](CC(C)C)N(C)C(=O)[C@H](C)N(C)C(=O)[C@H](CC(C)C)N(C)C(=O)[C@H](Cc2ccccc2)NC(=O)[C@H](Cc2ccccc2)N(C)C1=O [DP-628] ([dV][NMeA][NMeL][AllylGly][NMeF]F[NMeL][NMeA][NMeL]TD-Piperidide; lactam N-11) | 36 |
| CC(C)C[C@H]1C(=O)N(C)CC(=O)N(C)[C@@H](C)C(=O)N[C@@H]([C@@H](C)O)C(=O)N[C@H](C(=O)N2CCCCC2)CC(=O)N[C@H](C(C)C)C(=O)N(C)[C@@H](C)C(=O)N(C)[C@@H](CC(C)C)C(=O)N[C@@H](CC#N)C(=O)N(C)[C@@H](Cc2ccccc2)C(=O)N[C@@H](Cc2ccccc2)C(=O)N1C [DP-629] ([dV][NMeA][NMeL][Ala(CN)][NMeF]F[NMeL][Sar][NMeA]TD-Piperidide; lactam N-11) | 16 |
| CC(C)C[C@@H]1NC(=O)[C@H](CC(C)C)N(C)C(=O)[C@H](C)N(C)C(=O)[C@@H](C(C)C)NC(=O)C[C@@H](C(=O)N2CCCCC2)NC(=O)[C@H]([C@@H](C)O)NC(=O)[C@H](Cc2ccccc2)N(C)C(=O)[C@H](C)N(C)C(=O)[C@H](CC(C)C)N(C)C(=O)[C@H](CC#N)NC(=O)[C@H](Cc2ccccc2)N(C)C1=O [DP-630] ([dV][NMeA][NMeL]L[NMeF][Ala(CN)][NMeL][NMeA][NMeF]TD-Piperidide; lactam N-11) | 34 |
| CC[C@H](C)[C@H]1C(=O)N[C@@H]([C@@H](C)O)C(=O)N(C)CC(=O)N(C)[C@@H](CC(C)C)C(=O)N[C@H](C(=O)N2CCCCC2)CC(=O)N(C)[C@H](C)C(=O)N[C@@H](CC(C)C)C(=O)N(C)[C@@H](CC(C)C)C(=O)N(CC)[C@@H](Cc2ccccc2)C(=O)N[C@@H](C)C(=O)N(C)[C@@H](Cc2ccccc2)C(=O)N1C [DP-633] ([dNMeA]L[NMeL][NEtPhe]A[NMeF][NMeI]T[Sar][NMeL]D-Piperidide; lactam N-11) | 98 |
